From patent US7449492B2, “Therapeutic agents—I” (priority 2000, dated 2008)

Legend:
[1] = tested on: Peripheral blood mononuclear cells (PBMC); assay: Respiratory burst, H2O2 production by DCFH-DA flow cytometry; type: cell-based; settings: 10 μg/mL or 1 μg/mL, added at the same time as the test compounds
Experimental: Experiments were also carried out using 2′,7′-dichlorofluorescein diacetate (DCFH-DA) to measure the production of H2O2.(J P Robinson, Oxidative burst methods, in Handbook of Flow Cytometry Methods, Wiley-Liss Inc, pp 147-149, 1993). H2O2 oxidizes the non-fluorescent probe (DCFH-DA) to a fluorescent probe that can then be detected by a flow cytometer. Peripheral blood mononuclear cells (PBMC) were extracted from a donor blood sample by lysis of heparinized blood and used in a suspension of 1×10^6/mL of phosphate buffer, pH 7.3. The cells were then incubated, with DCFH-DA (1 μL/mL of 20 mM stock) for 15 minutes to allow it to be taken up and trapped by hydrolysis with cellular esterases. The cells were then stimulated by test compounds for 15 min at 37° C. Controls included in the experiment were unloaded control (cells with no DCFH-DA) and loaded control (cells with DCFH-DA, but no stimulation). These were used to monitor the non-specific oxidation of unstimulated cells. The cells were then analyzed on the flow cytometer (excitation at 488 nm, emission at 525±20 nm), gating each sample for individual cell populations—granulocytes, monocytes and lymphocytes (Table 3).

[2] = tested on: phorbol ester binding site of PKC; assay: [3H]-phorbol dibutyrate competition assay on rat brain homogenate; settings: co-incubation
Experimental: A competition assay was performed to determine whether the diterpene esters of the instant invention bind to the phorbol ester binding site of PKC. […] This binding was not blocked by co-incubation with bisindolylmaleimide.

[3] = tested on: rat brain PKC; assay: PKC kinase activity, PepTag Non-Radioactive Protein Kinase Kit; type: biochemical; settings: FIG. 1; TPA various dilutions (lanes 3, 4 and 5); ether extract at final dilution of 1 in 5 relative to the sap; crude sap and aqueous layer diluted 1/25
Experimental: The kinase activity of rat brain PKC (Promega) was determined using the Peptag™ Non-Radioactive Protein Kinase Kit (Promega). Using agarose gel electrophoresis the technique visualises the opposing electrostatic charge of a fluorescently labeled peptide ([sequence]) compared to the phosphorylated version of the same peptide.
The reaction mixture was separated by gel electrophoresis, showing migration of the unreacted substrate (a) to the anode (top), and the product (b), which is more negatively charged because of phosphorylation by PKC, moving towards the cathode (bottom).

[4] = target: T1, PKCβ (Homo sapiens, UniProt P05771); assay: EGFP-PKC isoform translocation in HeLa cells; type: cell-based; settings: one hour; for PKCβ translocation from the cytoplasm to the plasma membrane: TPA 100 ng/mL, bryostatin-1 5 pg/mL, PEP003 2.25 μg/mL (5 μM), PEP005 670 μg/mL (1.5 μM)
T1 construct: host or cells: HeLa cells
Experimental: (§1) Five EGFP-PKC isoforms (Clontech) were available for this experiment, enabling the screening of the three predominant PKC families (i.e. classical, novel and a typical PKCs). The members of the various PKC families are α, β, and γ (classical), θ (novel) and ζ (atypical).
(§2) HeLa cells were plated out in a 24-well plate containing coverslips and transfected with PKC isoforms fused to EGFP, using a commercially available effectine-transfection kit (QIAGEN, Pty. Ltd.). Cells were exposed to the transfection reagents for 16-24 hr. Subsequently, transfected cells were treated for one hour with TPA (100 ng/mL), bryostatin-1 (5 pg/mL), PEP003 (2.25 μg/mL; 5 μM) or PEP005 ([…]) 1.5 μM). Following treatment, cells were fixed on coverslips and mounted on glass slides. The slides were subsequently examined visually by fluorescence microscopy, photographed, and over 150 cells were counted/treatment/PKC isoform. Counted cells were classified according to the localisation of the PKC-EGFP fluorescence as either cytoplasmic or plasma membrane using ImagePro™ 4.1 (FIG. 5). […] The number of these cells was also counted. Results are presented as an average and standard deviation of percentages of cells (Table 1).

[5] = target: T2, PKCζ (Homo sapiens, UniProt Q05513); assay: EGFP-PKC isoform translocation in HeLa cells; type: cell-based; settings: one hour, TPA 100 ng/mL, bryostatin-1 5 pg/mL, PEP003 2.25 μg/mL (5 μM), PEP005 670 μg/mL (1.5 μM)
T2 construct: host or cells: HeLa cells
T2 sequence (Q05513 1-592): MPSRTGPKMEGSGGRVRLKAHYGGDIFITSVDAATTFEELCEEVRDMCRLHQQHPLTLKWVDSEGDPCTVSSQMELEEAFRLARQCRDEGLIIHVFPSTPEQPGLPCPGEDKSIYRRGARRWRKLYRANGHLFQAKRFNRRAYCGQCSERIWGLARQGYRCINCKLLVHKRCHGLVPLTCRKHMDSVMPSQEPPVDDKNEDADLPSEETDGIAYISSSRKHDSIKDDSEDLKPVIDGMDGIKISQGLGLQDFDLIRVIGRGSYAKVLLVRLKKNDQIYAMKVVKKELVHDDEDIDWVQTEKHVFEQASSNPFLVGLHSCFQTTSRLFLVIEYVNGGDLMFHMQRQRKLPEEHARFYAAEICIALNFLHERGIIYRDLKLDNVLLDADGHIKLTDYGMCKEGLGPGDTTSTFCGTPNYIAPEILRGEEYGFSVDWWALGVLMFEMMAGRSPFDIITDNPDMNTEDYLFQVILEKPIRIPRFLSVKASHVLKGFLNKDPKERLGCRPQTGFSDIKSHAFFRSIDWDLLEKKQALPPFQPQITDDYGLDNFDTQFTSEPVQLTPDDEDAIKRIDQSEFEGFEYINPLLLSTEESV
Experimental: as §1, §2

[6] = target: T3, PKCθ (Homo sapiens, UniProt Q04759); assay: EGFP-PKC isoform translocation in HeLa cells; type: cell-based; settings: one hour, TPA 100 ng/mL, bryostatin-1 5 pg/mL, PEP003 2.25 μg/mL (5 μM)
T3 construct: host or cells: HeLa cells
Experimental: as §1, §2

[7] = target: T4, PKCα (Homo sapiens, UniProt P17252); type: cell-based; settings: HeLa, one hour; for PKCα translocation from the cytoplasm to the plasma membrane: TPA 100 ng/mL, bryostatin-1 5 pg/mL, PEP003 2.25 μg/mL (5 μM), PEP005 (1.5 μM)
T4 construct: host or cells: HeLa cells
Experimental: as §1
as §2, with “counted.” for “counted. Results are presented as an average and standard deviation of percentages of cells (Table 1).”

[8] = tested on: peripheral blood mononuclear cells (PBMCs); assay: Phagocytosis with fluorescent beads; type: cell-based; settings: whole heparinized blood, 30 min at 37° C.
Experimental: Phagocytosis by peripheral blood mononuclear cells (PBMCs) was assayed (Steinkamp et al., 1982) using 1 μm Fluoresbrite™ yellow-green fluorescent latex spheres (Polysciences, Inc., Warrington, Pa.). A sample of whole, heparinized blood was treated with drug and 5×10E7 fluorescent latex beads in 10 μL of PBS added per mL of suspension. Cells were incubated and maintained in suspension for 30 min by means of a shaker platform at 37° C. The stimulated and non-stimulated samples were then lysed to isolate PBMCs. The PBMCs were run on the flow cytometer measuring FITC (excitation at 488 nm, emission at 525±20 nm), gated for fluorescence (phagocytosed spheres) and light scatter (cell size).

[9] = tested on: adenovirus 5; assay: Adenovirus replication in human melanoma cells (immunohistochemical detection); type: cell-based; settings: 295 ng/mL; 2 days
Excerpt: Human melanoma cells were infected with ten-fold dilutions of adenovirus 5 in culture, treated with dilutions of PEP005, PEP006, PEP008 and PEP010 and adenovirus replication determined 2 days later by immunhistochemical detection of virus-replicating cells.

[10] = tested on: latently HIV-1 infected cell line (U1); assay: Activation of latent HIV from U1 cells (p24 ELISA); type: cell-based, HIV-1 LAI strain; settings: 20 hr culture
Excerpt: A latently HIV-1 infected cell line (U1), derived from the promonocytic cell line U937 after infection with HIV-1 LAI strain, was used in these experiments. In the absence of activation, no or little virus (measured as p24 production) is produced by the U1 cell line. Phorbol esters are known to activate virus production from these cells (Tobiume et al., 1998) and so TPA/PMA was used as a positive control in these experiments.
Supernatants were collected and viral replication monitored by determination of the amounts of HIV p24 gag protein in the culture supernatants by ELISA, using a NEN Life Science HIV-1 p24 ELISA kit. p24 values were calculated from OD values using a standard curve.

[11] = target: T5, PKCγ (Homo sapiens, UniProt P05129); assay: EGFP-PKC isoform translocation in HeLa cells; type: cell-based; settings: one hour; for PKCγ translocation from the cytoplasm to the plasma membrane: TPA 100 ng/mL, bryostatin-1 5 pg/mL, PEP003 2.25 μg/mL (5 μM), PEP005 670 μg/mL (1.5 μM)
T5 construct: host or cells: HeLa cells
Experimental: as §1, §2

[12] = tested on: latent HIV in monocytes; settings: Tobiume et al., 1998; cited from earlier work
[13] = tested on: CMV promoter; settings: Christenson et al., 1999; cited from earlier work
[14] = tested on: Burkitt's lymphoma cell lines (MutuI and BL74); assay: EBV activation, VCA on western blots, Burkitt's lymphoma cell lines; type: cell-based
Experimental: Initially the effect of PEP003 and PEP004 was tested on the B95-8 cell line (an EBV positive marmoset cell line that is used worldwide as one of the best EBV producers). This cell line was treated with each of these compounds (at different concentrations) for 3 days and 7 days, respectively, and activation of EBV virus production was measured by the appearance of a viral capsid antigen (VCA) on western blots. Also, as a comparison, EBV was activated in this cell line with TPA.
To ensure that equal amounts of each sample were analyzed, the gels were stained with Coomassie blue and the loadings were adjusted to make them equal. […] Next the PEP003 and PEP004 were assayed on two Burkitt's lymphoma cell lines and an LCL. This time only concentrations of 10^−5 and 10^−7 were used.

T1 sequence (P05771 whole entry, species assumed, canonical isoform): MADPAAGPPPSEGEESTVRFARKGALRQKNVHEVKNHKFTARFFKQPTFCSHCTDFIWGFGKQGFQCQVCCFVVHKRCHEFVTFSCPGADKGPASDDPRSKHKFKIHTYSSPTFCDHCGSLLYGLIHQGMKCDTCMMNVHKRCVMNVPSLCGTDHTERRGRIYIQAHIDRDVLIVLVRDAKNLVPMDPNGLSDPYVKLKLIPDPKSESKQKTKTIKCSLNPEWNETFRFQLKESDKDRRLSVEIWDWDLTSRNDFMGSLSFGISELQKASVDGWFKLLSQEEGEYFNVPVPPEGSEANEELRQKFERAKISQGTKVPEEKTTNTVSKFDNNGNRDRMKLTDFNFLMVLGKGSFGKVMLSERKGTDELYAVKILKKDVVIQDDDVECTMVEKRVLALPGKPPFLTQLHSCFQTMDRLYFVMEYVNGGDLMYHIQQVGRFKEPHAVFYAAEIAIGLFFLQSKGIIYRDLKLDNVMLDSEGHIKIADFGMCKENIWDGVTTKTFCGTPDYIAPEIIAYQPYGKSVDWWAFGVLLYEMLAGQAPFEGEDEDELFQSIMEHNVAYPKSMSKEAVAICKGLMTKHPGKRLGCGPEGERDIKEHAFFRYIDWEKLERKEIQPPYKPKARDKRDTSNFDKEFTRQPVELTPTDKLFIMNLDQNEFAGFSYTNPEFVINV
T3 sequence (Q04759 whole entry, canonical isoform): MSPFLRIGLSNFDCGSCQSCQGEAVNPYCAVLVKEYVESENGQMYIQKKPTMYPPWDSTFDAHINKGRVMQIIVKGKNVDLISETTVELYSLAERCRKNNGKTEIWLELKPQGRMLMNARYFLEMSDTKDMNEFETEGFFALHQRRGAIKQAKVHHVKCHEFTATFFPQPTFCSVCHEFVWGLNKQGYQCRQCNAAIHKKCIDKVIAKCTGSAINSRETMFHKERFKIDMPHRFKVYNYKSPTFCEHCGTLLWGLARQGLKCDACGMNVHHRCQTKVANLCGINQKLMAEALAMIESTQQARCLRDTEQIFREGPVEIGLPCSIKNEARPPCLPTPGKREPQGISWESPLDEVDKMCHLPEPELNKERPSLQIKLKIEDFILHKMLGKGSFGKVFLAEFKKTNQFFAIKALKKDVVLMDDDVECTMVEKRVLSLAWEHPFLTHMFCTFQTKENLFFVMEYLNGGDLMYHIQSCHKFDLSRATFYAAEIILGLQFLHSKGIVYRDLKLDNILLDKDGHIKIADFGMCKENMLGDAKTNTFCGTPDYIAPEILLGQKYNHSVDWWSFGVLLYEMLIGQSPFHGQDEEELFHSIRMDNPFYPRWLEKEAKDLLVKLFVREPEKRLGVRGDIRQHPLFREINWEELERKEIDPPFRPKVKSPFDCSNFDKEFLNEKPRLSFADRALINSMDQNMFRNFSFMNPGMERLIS

bisindolylmaleimide
effect of PKC inhibitor on the respiratory burst seen with TPA and PEP003 [1]: blocked the respiratory burst
binds to the phorbol ester binding site of PKC [2]: does not

phosphatidyl serine
activation of PKC [3]: strong activation

CCC/C=C/C=C/C(=O)O[C@H]1/C(=C/C(=O)OC)C[C@H]2C[C@H]([C@@H](C)O)OC(=O)C[C@H](O)C[C@@H]3C[C@H](OC(C)=O)C(C)(C)[C@](O)(C[C@@H]4C/C(=C/C(=O)OC)C[C@H](/C=C/C(C)(C)[C@]1(O)O2)O4)O3 [bryostatin-1]
number of PKCβ transfected cells with Golgi-like fluorescence [4]: decreases the number of cells with PKCβ concentrated in the Golgi
PKCβ translocation from the cytoplasm to the plasma membrane [4]: not with bryostatin-1
PKCζ translocation [5]: fail to induce translocation of PKCζ
PKCθ translocation [6]: translocated
PKCα translocation from the cytoplasm to the plasma membrane [7]: not with bryostatin-1

C/C=C(/C)C(=O)O[C@H]1C(C)=C[C@]23C(=O)[C@H](C=C(C)[C@@H](O)[C@]12O)[C@H]1[C@@H](C[C@H]3C)C1(C)C [PEP006, 20-deoxy-ingenol-3-angelate]
phagocytosis of fluorescent latex spheres in PBMCs [8]: stimulate phagocytosis
increase of adenovirus replication (number of stained cells) [9]: 256%

CCCCCCCCCCCCCC(=O)O[C@@H]1[C@@H](C)[C@@]2(O)[C@@H](C=C(CO)C[C@]3(O)C(=O)C(C)=C[C@@H]23)[C@@H]2C(C)(C)[C@]12OC(C)=O [TPA]
activation of PKC [3]: showed activation of PKC
activation of HIV from U1 cells (p24 production) [10]: activated HIV from U1 cells
number of PKCγ transfected cells displaying Golgi-like fluorescence [11]: increase in the number of cells displaying Golgi-like fluorescence
PKCγ translocation from the cytoplasm to the plasma membrane [11]: translocated from the cytoplasm to the plasma membrane
number of PKCβ transfected cells with Golgi-like fluorescence [4]: increase in Golgi-like fluorescence
PKCβ translocation from the cytoplasm to the plasma membrane [4]: translocated from the cytoplasm to the plasma membrane
PKCζ translocation [5]: fail to induce translocation of PKCζ
PKCθ translocation [6]: translocated
activation of latent HIV in monocytes [12]: activate latent HIV in monocytes
phagocytosis of fluorescent latex spheres in PBMCs [8]: stimulate phagocytosis
increase of CMV promoter transcriptional activity [13]: increase this activity
number of PKCα transfected cells displaying Golgi-like fluorescence [7]: increase in the number of cells displaying Golgi-like fluorescence
PKCα translocation from the cytoplasm to the plasma membrane [7]: translocated from the cytoplasm to the plasma membrane
induction of VCA in MutuI cells [14]: did not

C/C=C(/C)C(=O)O[C@H]1C(C)=C[C@]23C(=O)[C@@H](C=C(CO)[C@@H](O)[C@]12O)[C@H]1[C@@H](C[C@H]3C)C1(C)C [PEP005, Ingenol-3-angelate]
number of PKCγ transfected cells displaying Golgi-like fluorescence [11]: increase in the number of cells displaying Golgi-like fluorescence
PKCγ translocation from the cytoplasm to the plasma membrane [11]: translocated from the cytoplasm to the plasma membrane
number of PKCβ transfected cells with Golgi-like fluorescence [4]: decreases the number of cells with PKCβ concentrated in the Golgi
PKCβ translocation from the cytoplasm to the plasma membrane [4]: translocated from the cytoplasm to the plasma membrane
PKCζ translocation [5]: fail to induce translocation of PKCζ
PKCθ translocation [6]: does not induce any change in the isoenzymes localization
phagocytosis of fluorescent latex spheres in PBMCs [8]: stimulate phagocytosis
number of PKCα transfected cells displaying Golgi-like fluorescence [7]: increase in the number of cells displaying Golgi-like fluorescence
PKCα translocation from the cytoplasm to the plasma membrane [7]: translocated from the cytoplasm to the plasma membrane
